According to US9169241B2, “Quinolinyloxyphenylsulfonamides” (Max-Planck-Gesellschaft Zur Forderung der Wissenschaften …, priority 2009, dated 2015):
Like-named read-outs stand apart in the source and are kept apart here.

Tests used:
[1] = test system: Hs578T; test: Cell vitality assay (ATP assay, CellTiter-Glo); format: cell-based; settings: Homo sapiens, Hs-578T; HS578T cell line, 72 h; Table Ib; read-out: IC50 ATP-Assay HS578T after 72 h
Procedure, shortened: (§1)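 Luminescent ATP read-out of viable cells; IC50 = concentration at which ATP falls to 50% of DMSO control. Cells seeded at 1000/well, treated 72 h with seven concentrations from 0.195 to 12.5 μM.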

[2] = test system: SF126; test: Cell vitality assay (ATP assay, CellTiter-Glo); format: cell-based; settings: Homo sapiens, SF-126; SF126, 72 h; Table IIa; read-out: IC50 ATP-Assay after 72 h SF126
Procedure, shortened: as §1

[3] = test system: U118; test: Cell vitality assay (ATP assay, CellTiter-Glo); format: cell-based; settings: U118, 72 h; Table IIa; read-out: IC50 ATP-Assay after 72 h U118
Procedure, shortened: as §1

[4] = test system: Hs578T; test: Wound healing migration assay; format: cell-based; settings: Homo sapiens, Hs-578T; HS578T cell line; Table Ib
Procedure, shortened: (§2)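 Compound exposure at 12.5, 6.25 and 3.125 μM, with DMSO control, on scratch-wounded monolayers (150000 cells/24 well, overnight). Wound closure imaged by microscopy, fixed with crystal violet after 48 h or 72 h depending on cell line; IC50 is the concentration giving 50% wound size between t0 and t48/t72.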

[5] = test system: indicated cell line; test: Wound healing migration assay (Table IV); format: cell-based; settings: compounds at 12.5, 6.25, 3.125 μM, 48 h-72 h
Procedure, shortened: as §2

[6] = test system: A172; test: Matrigel outgrowth assay/branching assay; format: cell-based; settings: Homo sapiens, A 172, Table Vb, read-out: Total branching inhibition in Matrigel A172
Procedure, shortened: (§3)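 Matrigel 3 mg/ml, polymerized 1 h 37° C; 5000 cells/well + cmpd 3.125/1.56/0.78 μM or DMSO. Imaged 48/72/96 h, 5× objective. Positive = total branching block.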

[7] = test system: Hs578T; test: Matrigel outgrowth assay/branching assay; format: cell-based; settings: Homo sapiens, Hs-578T; HS578T cell line; Table Ib; read-out: Total branching inhibition in Matrigel HS578T
Procedure, shortened: as §3

[8] = test system: SF126; test: Matrigel outgrowth assay/branching assay; format: cell-based; settings: Homo sapiens, SF-126, Table Vb, read-out: Total branching inhibition in Matrigel SF126
Procedure, shortened: as §3

[9] = test system: U118; test: Matrigel outgrowth assay/branching assay; format: cell-based; settings: Table Vb, read-out: Total branching inhibition in Matrigel U118
Procedure, shortened: as §3

[10] = Homo sapiens, A 172, A172 cells, read-out: IC50 Wound healing Assay A172
[11] = Homo sapiens, SF-126, SF126 cells, read-out: IC50 Wound healing Assay SF126
[12] = U118 cells, read-out: IC50 Wound healing Assay U118

SMILES | IC50 [1] | IC50 [2] | IC50 [3] | IC50 [4] | IC50 [5, 10] | IC50 [5, 11] | IC50 [5, 12] | IC100 [6] | IC50 [7] | IC100 [8] | IC100 [9] | melting point
COc1cc2c(Oc3ccc(NS(=O)(=O)c4c(Cl)cccc4Cl)cc3Cl)ccnc2cc1OCCCN1CCN(C)CC1 [Example 119, 2,6-Dichloro-N-(3-chloro-4-{6-methoxy-7-[3-(4-methyl-piperazin-1-yl)-propoxy]-quinolin-4-yloxy}-phenyl)-benzenesulfonamide] | ≤ 12.5 µM | ≤ 12.5 µM | ≤ 12.5 µM | ≤ 12.5 µM | ≤ 12.5 µM | ≤ 12.5 µM | ≤ 12.5 µM | ≤ 12.5 µM | ≤ 10 µM | ≤ 12.5 µM | ≤ 12.5 µM | 171 to 172 °C
COC(=O)c1sccc1S(=O)(=O)Nc1ccc(Oc2ccnc3cc(OCCCN4CCCCC4)c(OC)cc23)c(F)c1 [Example 155, 3-{3-Fluoro-4-[6-methoxy-7-(3-piperidin-1-yl-propoxy)-quinolin-4-yloxy]-phenylsulfamoyl}-thiophene-2-carboxylic acid methyl ester] | ≤ 12.5 µM | ≤ 12.5 µM | ≤ 12.5 µM | ≤ 12.5 µM | ≤ 12.5 µM | ≤ 12.5 µM | ≤ 12.5 µM | ≤ 12.5 µM | 10 to 25 µM | ≤ 12.5 µM | ≤ 12.5 µM | 138 to 139 °C
COC(=O)c1sccc1S(=O)(=O)Nc1ccc(Oc2ccnc3cc(OCCCN4CCC(C)CC4)c(OC)cc23)c(F)c1 [Example 156, 3-(3-Fluoro-4-{6-methoxy-7-[3-(4-methyl-piperidin-1-yl)-propoxy]-quinolin-4-yloxy}-phenylsulfamoyl)-thiophene-2-carboxylic acid methyl ester] | ≤ 12.5 µM | ≤ 12.5 µM | ≤ 12.5 µM | ≤ 12.5 µM | ≤ 12.5 µM | ≤ 12.5 µM | ≤ 12.5 µM | > 12.5 µM | 10 to 25 µM | ≤ 12.5 µM | ≤ 12.5 µM | 139 to 141 °C
COC(=O)c1sccc1S(=O)(=O)Nc1ccc(Oc2ccnc3cc(OCCCN4CCOCC4)c(OC)cc23)c(F)c1 [Example 157, 3-{3-Fluoro-4-[6-methoxy-7-(3-morpholin-4-yl-propoxy)-quinolin-4-yloxy]-phenylsulfamoyl}-thiophene-2-carboxylic acid methyl ester] | ≤ 12.5 µM | ≤ 12.5 µM | ≤ 12.5 µM | ≤ 12.5 µM | ≤ 12.5 µM | ≤ 12.5 µM | ≤ 12.5 µM | > 12.5 µM | 10 to 25 µM | ≤ 12.5 µM | > 12.5 µM | 167 to 168 °C
COC(=O)c1sccc1S(=O)(=O)Nc1ccc(Oc2ccnc3cc(OCCCN4CCN(C)CC4)c(OC)cc23)c(F)c1 [Example 158, 3-(3-Fluoro-4-{6-methoxy-7-[3-(4-methyl-piperazin-1-yl)-propoxy]-quinolin-4-yloxy}-phenylsulfamoyl)-thiophene-2-carboxylic acid methyl ester] | ≤ 12.5 µM | ≤ 12.5 µM | ≤ 12.5 µM | ≤ 12.5 µM | ≤ 12.5 µM | ≤ 12.5 µM | ≤ 12.5 µM | > 12.5 µM | 10 to 25 µM | ≤ 12.5 µM | ≤ 12.5 µM | 146 to 148 °C
COc1cc2c(Oc3ccc(NS(=O)(=O)c4c(F)cccc4F)cc3F)ccnc2cc1OCCCN(C)C [Example 178, N-{4-[7-(3-Dimethylamino-propoxy)-6-methoxy-quinolin-4-yloxy]-3-fluoro-phenyl}-2,6-difluoro-benzenesulfonamide] | ≤ 12.5 µM | ≤ 12.5 µM | ≤ 12.5 µM | 12.5 to 50 µM | ≤ 12.5 µM | ≤ 12.5 µM | ≤ 12.5 µM | > 12.5 µM | ≤ 10 µM | ≤ 12.5 µM | ≤ 12.5 µM | 125 to 127 °C
COc1cc2c(Oc3ccc(NS(=O)(=O)c4ccccc4OC(F)(F)F)cc3F)ccnc2cc1OCCCN(C)C [Example 179, N-{4-[7-(3-Dimethylamino-propoxy)-6-methoxy-quinolin-4-yloxy]-3-fluoro-phenyl}-2-trifluoromethoxy-benzenesulfonamide] | ≤ 12.5 µM | ≤ 12.5 µM | ≤ 12.5 µM | ≤ 12.5 µM | ≤ 12.5 µM | ≤ 12.5 µM | 12.5 to 50 µM | > 12.5 µM | 10 to 25 µM | ≤ 12.5 µM | ≤ 12.5 µM | 94 to 96 °C
COc1cc2c(Oc3ccc(NS(=O)(=O)c4c(Cl)cccc4Cl)cc3F)ccnc2cc1OCCCN(C)C [Example 181, 2,6-Dichloro-N-{4-[7-(3-dimethylamino-propoxy)-6-methoxy-quinolin-4-yloxy]-3-fluoro-phenyl}-benzenesulfonamide] | ≤ 12.5 µM | ≤ 12.5 µM | ≤ 12.5 µM | ≤ 12.5 µM | ≤ 12.5 µM | ≤ 12.5 µM | ≤ 12.5 µM | > 12.5 µM | ≤ 10 µM | ≤ 12.5 µM | ≤ 12.5 µM | 197 to 198 °C
COC(=O)c1sccc1S(=O)(=O)Nc1ccc(Oc2ccnc3cc(OCCCN(C)C)c(OC)cc23)c(F)c1 [Example 184, 3-{4-[7-(3-Dimethylamino-propoxy)-6-methoxy-quinolin-4-yloxy]-3-fluoro-phenylsulfamoyl}-thiophene-2-carboxylic acid methyl ester] | ≤ 12.5 µM | ≤ 12.5 µM | ≤ 12.5 µM | ≤ 12.5 µM | ≤ 12.5 µM | ≤ 12.5 µM | ≤ 12.5 µM | > 12.5 µM | 10 to 25 µM | ≤ 12.5 µM | ≤ 12.5 µM | 80 to 82 °C
COc1cc2c(Oc3c(Cl)cc(NS(=O)(=O)c4c(F)cccc4F)cc3Cl)ccnc2cc1OCCCN1CCC(C)CC1 [Example 209, N-(3,5-Dichloro-4-{6-methoxy-7-[3-(4-methyl-piperidin-1-yl)-propoxy]-quinolin-4-yloxy}-phenyl)-2,6-difluoro-benzenesulfonamide] | ≤ 12.5 µM | ≤ 12.5 µM | ≤ 12.5 µM | ≤ 12.5 µM | ≤ 12.5 µM | ≤ 12.5 µM | ≤ 12.5 µM | ≤ 12.5 µM | ≤ 10 µM | ≤ 12.5 µM | ≤ 12.5 µM | 146 to 151 °C
